Experimental data published in a melting point compilation (Tetko et al.; mined from patent text by program, amines drawn as free bases though some values may be those of a salt).

SMILES	melting point
CSc1csc2ccc(Br)cc12	56 to 57 °C
COC1=C(C)C(=O)C(OC)=C(CCCCCC2=C(OC)C(=O)C(C)=C(OC)C2=O)C1=O	84 to 86 °C
Cc1ccc2c(NCc3ccc(NC(=O)c4ccc(F)cc4)cc3)nc(NC3CCN(Cc4ccccc4)CC3)nc2c1	135 to 138 °C
CC(=O)SCCC1NSc2cc(S(N)(=O)=O)c(Cl)cc2N1 (stereo not drawn)	192 to 195 °C
O=C(O)CN(CC(CO)N(CCCO)CC(=O)O)CC(CO)N(CCCO)CC(=O)O (stereo not drawn)	173 to 177 °C
CCOC(=O)Cc1c(C)nc(-c2ccccc2)nc1-c1cccc([N+](=O)[O-])c1	106 to 108 °C
CC(=O)n1cc(C#N)c(-c2ccccc2C(F)(F)F)c1	67 to 69 °C
CC(N)=C(C(=O)OC(C)(C)C)C(=S)NC(=O)c1ccccc1	107 to 110 °C
CC(=O)C1CCC2C3CCC4=CC(=O)CCC4(CO)C3CCC12C (stereo not drawn)	165 to 168 °C
CSc1cc(C)nc(SC)c1NC(=O)CN1CCN(CCSc2nc3ccccc3[nH]2)CC1	96 to 97 °C
CC(=O)Nc1ccc(S(=O)(=O)NCC2CCN(C[C@H]3COc4ccc(Cl)cc4O3)CC2)cc1	173 to 176 °C
CC(C)NC(=O)c1ccc(N2CCC(N3C(=O)OCc4ccccc43)CC2)c(C#N)c1	200 °C
Fc1ccc(-c2cc(Cl)c3ccccc3n2)cc1	90 to 93 °C
Cn1cc(-c2cc(Cl)cc(Cl)c2)c(=O)c(-c2cc(Cl)cc(Cl)c2)c1	275 to 278 °C
CNC1Oc2cc(Cl)cc(-c3ccccc3F)c2O1 (stereo not drawn)	> 250 °C
CCOC(=O)C(C)(C)Oc1ccc(-c2ccc(CCNC(=O)c3ccc(OC)cc3)cc2)cc1	149 to 150 °C
CCN1CCC(c2cccc(C(F)(F)F)c2)(C(C)(C)O)CC1	110 °C
O=C(c1cccs1)c1cnn2c(-c3cccc(-c4ccn(CC5CCC5)n4)c3)ccnc12	60 °C
CCOC(=O)C(C)(C)Oc1ccc(OCc2nc(-c3ccc(C(C)(C)C)cc3)no2)cc1	79 to 81 °C
CC1CN(c2cc3c(cc2F)c(=O)c(C(=O)O)cn3C2CC2)CCN1CCC#N (stereo not drawn)	203 to 206 °C
CCN(CC)C(=O)c1nc(-c2ccc(Cl)cc2Cl)[nH]c1C(F)(F)F	186 to 190 °C
O=c1[nH]ncc2c1c(O)nc1cc(Cl)ccc12	> 350 °C
CCOC(=O)c1c(C)cc2[nH]c(=O)n(-c3ccccc3C(F)(F)F)c(=O)c2c1C	175 to 176 °C
COc1cc(OC)c2c(=O)[nH]c(-c3ccc(OC4CCN(C(C)=O)CC4)cc3)nc2c1	275 to 277 °C
CCOC(=O)c1nc2scc(CNC(=O)c3ccccc3)c2c(=O)[nH]1	204 °C
COc1ccc2c(c1)C(N)(CCC#N)C(=O)N2c1ccc(F)cc1 (stereo not drawn)	136 to 138 °C

SMILES	melting point
CCc1ccc(OC(=O)c2ccccc2)c(C(=O)c2ccc(Cl)cc2)c1	79 to 81 °C
CCCOc1ccccc1-c1cc(C)c(C(N)=O)c(=O)[nH]1	239 to 242 °C
CCCCC(Cn1cncn1)(C(=O)O)c1ccc(Cl)cc1 (stereo not drawn)	169 to 171 °C
CCn1c(C(F)(F)F)cc(=O)n(-c2cc(C(=O)OC3CCCC3)c(Cl)cc2F)c1=O	90 to 91 °C
CC(C)NC(=N)NC(=N)NOCCCOc1ccc(OC(F)(F)F)cc1	154 to 155 °C
COc1cnn(C2CCCCO2)c(=O)c1 (stereo not drawn)	76 to 78 °C
CC(=O)NC[C@H]1OC(=O)N2c3ccc(C(=O)CCl)cc3C[C@H]12	172 to 174 °C
CCOC(=O)C(O)=CC(=O)c1ccc(C)o1	88 to 92 °C
CCN(CC)c1ccc(-c2cc(-c3ccc(C(=O)O)cc3)ccc2CCCO)cc1C(C)(C)C	95 °C
O=C1NCc2cccn2-c2ccsc21	191 °C
CCOC(=O)N1CC[C@@H](N)[C@H](O)C1 (relative stereo)	76.9 °C
N#Cc1cnn2c1N(C(=O)CN1CCN(C(=O)Nc3ccc(Cl)c(Cl)c3)CC1)CC=C2c1cccc(C(F)(F)F)c1	204 to 206 °C
O=C(Nc1ccccn1)c1nnc2ccccc2c1O	341 to 343 °C
[N-]=[N+]=NC1CC(n2ccc(N)nc2=O)OC1CO (stereo not drawn)	174 to 176 °C
COC(=O)c1ccccc1SSc1ccccc1C(=O)Nc1ccc(S(N)(=O)=O)cc1	288 to 290 °C
CSc1ncc(Cc2cccnc2)c(=S)[nH]1	211 to 213 °C
O=C(O)CCCCCCNS(=O)(=O)c1ccccc1	75 to 77 °C
Cc1oc(-c2ccccc2)nc1COc1ccc(CCCC#N)cc1	73 to 74 °C
Cc1ccccc1NC(=O)CN1C[C@@H](C)N(c2ncnc3sccc23)[C@@H](C)C1	174 to 175 °C
COC(=O)N1c2ccccc2Sc2nccnc21	137 to 138 °C
ONC(=S)CCc1ccc(F)cc1	115 to 116 °C
COc1cc(I)ccc1C(=O)Nc1ccc(OC)c(N2CCN(C)CC2)c1	168 to 170 °C
O=C1C(=c2[nH]c(=c3[nH]c(=C4C(=O)c5ccccc5C4=O)c4ccccc34)c3ccccc23)C(=O)c2ccccc21	> 300 °C
O=C(O)c1cn(C2COC2)c2c(F)c(N3CCNCC3)cc(F)c2c1=O	> 300 °C
COc1ccc2c(c1)C1(C)CC(=O)N(C)C1(O)CC2 (stereo not drawn)	182 to 186 °C
Cc1ccccc1C(=O)Nc1ccc(C(=O)N2c3ccccc3CNc3ccccc32)cc1	68 to 71 °C

SMILES	melting point
O=C1CCC2(CC1)CC(=O)NC2=O	154 °C
O=CNNc1ccc([N+](=O)[O-])cc1	183 to 185 °C
NC(=O)c1cccc2nnsc12	270 to 272 °C
CCOC(=O)C1=C(C)NC(c2nccn2C)=NC1c1ccc(F)cc1Cl (stereo not drawn)	166 to 167 °C
CCC(C(=O)N(C)C)n1nc(-c2ccccc2)cc1C (stereo not drawn)	117 to 120 °C
CC(=NNc1ccc(C2=NNC(=O)CC2)cc1)c1cccnc1	236 to 237 °C
O=CNCc1cc(C(O)CNCCCCCCOCCCCc2ccccc2)ccc1O (stereo not drawn)	76 to 77 °C
COC(=O)C(C#N)(Cc1ccc(-c2cccc(C(F)(F)F)c2)cc1)C(c1ccccc1OC)c1cccc2ccccc12 (stereo not drawn)	202 to 204 °C
Cc1ccc(C)c(OCCC(N)C(C)(C)C(=O)O)c1 (stereo not drawn)	86.1 to 86.9 °C
N#Cc1ccc2c(c1)N=Cc1ccccc1O2	158 to 159 °C
Cc1nn(C)c(C)c1C(=O)Nc1cccc2c1C(C)CC2(C)C (stereo not drawn)	176 °C
O=C(CCCCCBr)Nc1ccc(O)cc1	124 to 125 °C
CCOP(=O)(CCOCn1cnc2c(OC)ncnc21)OCC	140 to 141 °C
Cc1ccc2c(c1)S(=O)(=O)c1cc(C)ccc1O2	175 to 176 °C
CC(NC(=O)OCc1ccccc1)P(C)(=O)O (stereo not drawn)	118 to 119 °C
COc1ccc(S(=O)(=O)Nc2ccccc2NC(=O)c2cccnc2)cc1	179 to 180 °C
O=C(NC1CCN(CCCc2ccc(F)cc2)C1)C12CC3CC(CC(C3)C1)C2 (stereo not drawn)	114 to 115 °C
Nc1ccc2c(Cl)cc(Cl)nc2n1	213 to 216 °C
CN1C2CCC1CN(c1ccc(-c3ccccc3)nn1)C2	151 °C
COC(=O)C(Oc1cc(O)ccc1C#N)c1ccccc1C (racemic)	114 to 121 °C
COC(=O)C(CNC(=O)C1CC1)c1cccc2ccccc12 (stereo not drawn)	140 to 142 °C
COc1ccc(C(=O)c2cc3c(ccc4ccccc43)oc2=O)cc1	158 to 160 °C
C=CCc1c(O)ccc(C(=O)OC)c1O	65 to 66 °C
CSCC[C@H](NC(=O)N[C@@H](CCSC)C(=O)O)C(=O)O	167 to 180 °C
CCC(C)(C)Nc1c(NCc2ccccn2)c(=O)c1=O	192 °C
CC(C(=O)c1cccc(OCc2ccccc2)c1)N1CCC(n2c(=O)[nH]c3ccccc32)CC1 (stereo not drawn)	138 to 140 °C

SMILES	melting point
O=[N+]([O-])c1ccc2c(Br)cc3nc(O)c(O)nc3c2c1	> 300 °C
O=C(Nc1ccc(NC(=O)OCCCl)nc1)OCCCl	198 °C
O=C(O)CCCN1c2ccccc2Sc2ccc(Cl)cc21	142 to 144 °C
COC1=CC(OC)(OC)C(I)C=C1C(=O)OCC(=O)c1ccccc1 (stereo not drawn)	146 °C
Cc1cc(NC(=O)c2cnccn2)nc(C)c1Br	206 °C
COc1ccc(-n2c(-c3sc(Nc4ccc(Cl)cc4)nc3-c3ccccc3)nc3ccccc3c2=O)cc1	220 to 221 °C
CCOP(=O)(CCN1CCCCNc2c1c(=O)c2=O)OCC	103 to 105 °C
CCC(=O)Nc1nc(N[C@H]2c3cc(C)ccc3C[C@@H]2C)nc(C(F)F)n1	66 °C
COc1cc(OC)cc(-c2nc(C)nn2-c2ccc(S(N)(=O)=O)cn2)c1	195 to 196 °C
N#Cc1cc(C(F)(F)F)ccc1Oc1cccc(C(=O)O)c1	224 to 226 °C
CCOCCOc1ccc(-c2ccc3c(c2)C=C(C(=O)OC)CCN3C=O)cc1	138 to 142 °C
O=C(Nc1cccc(C(F)(F)F)c1)N1CCN(Cc2ccc(Nc3ccnc4cc(C(F)(F)F)ccc34)cc2)CC1	198 to 200 °C
Cn1c(=O)ccn(C2C=CC(CO)O2)c1=O (stereo not drawn)	203 to 204 °C
Cn1ncc2c3[nH]n(-c4ccc(S(N)(=O)=O)cc4)c(=O)c3c(-c3cccc(C(F)(F)F)c3)nc21	272 to 274 °C
FC(F)(F)c1cccc(-c2ccc3nnc(C(F)(F)F)n3n2)c1	189 °C
COC(=O)CCc1ccc(CBr)cc1	38 to 42 °C
Cc1nc(C)c(CC(=O)O)c(-c2ccccc2)c1CC(=O)O	137 to 138 °C
CCOC(=O)C1=C(C)N(C(C)=O)C(c2csc(C)n2)=NC1c1cccc(C)c1 (stereo not drawn)	113 to 114 °C
CN(C)CCNC(=O)c1cccc(-c2cccc3cc(Cc4cc(F)cc(Cl)c4)sc23)c1	126 to 127 °C
N#Cc1c(N2CCN(C(=O)c3cccs3)CC2)c2ccccc2[nH]c1=O	264 °C
CC(Oc1ccc2c(c1)c(-c1cc3cccnc3[nH]1)cn2C)C(=O)O (stereo not drawn)	177 to 178 °C
CSc1nccc(CC(=O)c2ccc(F)cc2)n1	212 to 214 °C
CN=Cc1cccc(C(=O)NC)c1	87 °C
NS(=O)(=O)CCCSc1ccc2ncnn2n1	130 to 131 °C
COc1ccc(C(O)(CN)Cc2ccccc2N)cc1OC (stereo not drawn)	131 to 133 °C
